From ChEMBL document CHEMBL1127798, “Structure-activity relationships and pH dependence of binding of 8-alkyl-N5-deazapterins to dihydrofolate reductase” (J Med Chem, 1994) come the findings set out here.

In test [1] the target is T1, Dihydrofolate reductase (Homo sapiens, UniProt P00374).
T1 sequence (P00374 whole entry): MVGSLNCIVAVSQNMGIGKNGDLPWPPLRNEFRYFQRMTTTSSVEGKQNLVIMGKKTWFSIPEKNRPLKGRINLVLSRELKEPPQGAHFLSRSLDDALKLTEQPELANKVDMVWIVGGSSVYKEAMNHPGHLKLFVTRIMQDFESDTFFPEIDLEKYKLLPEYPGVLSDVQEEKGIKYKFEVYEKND
As to the kind of experiment: Apparent dissociation constant at pH 6.6 for human dihydrofolate reductase in the absence of cofactor NADPH.

Test [2] has as its target T1, Dihydrofolate reductase. As to the kind of experiment: Apparent dissociation constant at pH 6.6 for human dihydrofolate reductase in the presence of cofactor NADPH.
Test [3] concerns the target T1, Dihydrofolate reductase. As to the kind of experiment: Tested for the apparent dissociation constant for binding of compound to binary NADPH complex with human dihydrofolate reductase using equation 11.
In test [4] the target is T1, Dihydrofolate reductase. Briefly: Tested for the apparent dissociation constant for binding of compound to ternary NADPH complex with human dihydrofolate reductase using equation 4.
Test [5] addresses T1, Dihydrofolate reductase. Briefly: Tested for the apparent dissociation constant for binding of compound to ternary NADPH complex with human dihydrofolate reductase using equations 15 and 16.
For test [6], the target named is T1, Dihydrofolate reductase. Briefly: Tested for the apparent dissociation constant for binding of compound to ternary NADPH complex with human dihydrofolate reductase using equation 11.
The target of test [7] is T1, Dihydrofolate reductase. As to the kind of experiment: Tested for the apparent dissociation constant for binding of compound to binary NADPH complex with human dihydrofolate reductase using equations 11 and 12.
Test [8] has as its target T1, Dihydrofolate reductase. As to the kind of experiment: Tested for the apparent dissociation constant for binding of compound to binary NADPH complex with human dihydrofolate reductase using equation 4.
Test [9] addresses T1, Dihydrofolate reductase. As to the kind of experiment: Tested for the apparent dissociation constant for binding of compound to binary NADPH complex with human dihydrofolate reductase using equation 16.

As for `CC(C)CN1C=CC=C2C(=O)NC(N)N=C21` (stereo unspecified), the Kd is 2200 nM on Dihydrofolate reductase [1] and 600 nM at Dihydrofolate reductase [2].

Consider `CC1=C2C(=O)NC(N)N=C2N(CCC(C)C)C=C1` (stereo unspecified), for which the results for the Kd on Dihydrofolate reductase [1] and at Dihydrofolate reductase [2] were 1800 nM and 700 nM, respectively.

For `CCN1C=C(C)C=C2C(=O)NC(N)N=C21` (stereo unspecified), the Kd at Dihydrofolate reductase [1] turned out to be 130000 nM; at Dihydrofolate reductase [2] it was 16000 nM.

For the compound `CCCN1C=CC=C2C(=O)NC(N)N=C21` (stereo unspecified), the Kd on Dihydrofolate reductase [3] was 6500 nM; at Dihydrofolate reductase [4] it was 2.6 nM; at Dihydrofolate reductase [5] it was 1700 nM; at Dihydrofolate reductase [6], 830 nM; at Dihydrofolate reductase [7] it was 5800 nM; on Dihydrofolate reductase [1], 12000 nM. For the same compound, the Kd at Dihydrofolate reductase [8] amounted to 20.7 nM; on Dihydrofolate reductase [9] it was 2100 nM; at Dihydrofolate reductase [2], 4000 nM.

With `CN1C=CC=C2C(=O)NC(N)N=C21` (stereo unspecified), the Kd was 118000 nM at Dihydrofolate reductase [1] and 21000 nM at Dihydrofolate reductase [2].

With `CCCN1C=C(C)C=C2C(=O)NC(N)N=C21` (stereo unspecified), the Kd on Dihydrofolate reductase [1] came to 108000 nM; on Dihydrofolate reductase [2] it was 4600 nM.

Turning to `CC1=CN(C(C)C)C2=NC(N)NC(=O)C2=C1` (stereo unspecified), the Kd at Dihydrofolate reductase [1] was determined as 60000 nM; at Dihydrofolate reductase [2], 18000 nM.

As for `CC1=C2C(=O)NC(N)N=C2N(CC(C)C)C=C1` (stereo unspecified), the Kd was found to be 3000 nM on Dihydrofolate reductase [3]; 0.1 nM at Dihydrofolate reductase [4]; 57 nM on Dihydrofolate reductase [5]; 30 nM at Dihydrofolate reductase [6]; 2600 nM at Dihydrofolate reductase [7]; 2400 nM on Dihydrofolate reductase [1]. Further, the Kd on Dihydrofolate reductase [8] was determined as 0.2 nM; at Dihydrofolate reductase [9], 2200 nM; at Dihydrofolate reductase [2], 80 nM.

Take `CCCN1C(C)=CC=C2C(=O)NC(N)N=C21` (stereo unspecified): the Kd worked out at 2700 nM on Dihydrofolate reductase [3]; 0.6 nM at Dihydrofolate reductase [4]; 1000 nM on Dihydrofolate reductase [5]; 450 nM at Dihydrofolate reductase [6]; 1200 nM on Dihydrofolate reductase [7]; 3400 nM at Dihydrofolate reductase [1]. The Kd on Dihydrofolate reductase [8] stood at 0.5 nM; on Dihydrofolate reductase [9], 2800 nM; at Dihydrofolate reductase [2], 2000 nM.

On to `CC1=C2C(=O)NC(N)N=C2N(C)C=C1` (stereo unspecified), for which the Kd turned out to be 21000 nM on Dihydrofolate reductase [1] and 5100 nM on Dihydrofolate reductase [2].

In the case of `CC(C)N1C=CC=C2C(=O)NC(N)N=C21` (stereo unspecified), the results for the Kd on Dihydrofolate reductase [1] and on Dihydrofolate reductase [2] were 34000 nM and 1900 nM, respectively.

In the case of `NC1N=C2C(=CC=CN2Cc2ccccc2)C(=O)N1` (stereo unspecified), the Kd at Dihydrofolate reductase [1] stood at 1700 nM; at Dihydrofolate reductase [2], 700 nM.

For the compound `CCN1C=CC=C2C(=O)NC(N)N=C21` (stereo unspecified), the Kd at Dihydrofolate reductase [1] is 60000 nM; on Dihydrofolate reductase [2], 13000 nM.

`CC1=CN(C)C2=NC(N)NC(=O)C2=C1` (stereo unspecified): the Kd at Dihydrofolate reductase [1] stood at 31000 nM; on Dihydrofolate reductase [2] it was 500 nM.

With `CC1=CC=C2C(=O)NC(N)N=C2N1C` (stereo unspecified), the Kd at Dihydrofolate reductase [1] worked out at 21000 nM; on Dihydrofolate reductase [2], 2900 nM.
